The values that follow come from patent US20230142274A1 (SIMCERE PHARMACEUTICAL CO., LTD., priority 2020, published 2023).

In general, IC50 refers to the concentration that gives 50% inhibition.

The test system of this test is Daudi cells. In words: Inhibition of human Daudi lymphoma cell proliferation (Cell-Titer Glo). The class given is cell-based. The note with it: Homo sapiens, 72 h, 3 days incubation, read-out: Anti-Proliferative Activity Against Daudi cells IC50. The procedure: Introduction of the experimental principle: After the RAD51 inhibitor to be tested was co-incubated with cancer cells for a period of time, the influence of the test compound on cell proliferation was measured by a method for counting cell proliferation based on the quantitative measurement of intracellular ATP content.
Materials and Cells: Daudi cells were purchased from ATCC; fetal bovine serum, 1640 medium and penicillin-streptomycin were purchased from Gibco Inc. (U.S.), 96-well plates were purchased from Corning Inc. (U.S.), and Cell-Titer Glo reagent was purchased from Promega Corporation (U.S.).
Cell culture: Daudi cells were cultured in 1640 culture medium containing 10% fetal bovine serum and 1% penicillin-streptomycin at 37° C. in an atmosphere containing 5% CO2. Cells in logarithmic growth phase could be used for experiments.
Assay of cell proliferation and viability: Cell-Titer Glo reagent was used to measure the inhibitory activities of the compounds on the proliferation of Daudi cell strain. The concentration of cells was adjusted, and the cells were seeded in a 96-well plate and cultured at 37° C. in an atmosphere containing 5% CO2 for 24 hours. The powder of the compound was dissolved in 100% DMSO to form a 10 mM solution. 10 μl of the solution of the compound was aspirated and transferred into a 96-well compound plate containing 20 μl of DMSO solution for 3-fold dilution and was then formulated into 10 serial dilutions. Thereafter, 2 μl of the solution of the compound was aspirated from the corresponding well and added correspondingly into a 96-well intermediate compound dilution plate containing 78 μl of complete culture medium in each well. The resultant was mixed well, and the plate was centrifuged at 1000 rpm for 1 minute. Finally, 10 μl of the solution of the compound was aspirated from the corresponding well of the 96-well intermediate compound dilution plate, and transferred into the corresponding well of the cell culture plate containing 90 μl of complete culture medium. The final concentration of DMSO was 0.25%. After the addition of the compound, the cells were continued to be incubated for 3 days at 37° C. in an atmosphere containing 5% CO2. Cell-Titer Glo reagent was added to measure cell viability.
% Compound inhibition was calculated and IC50 of the compound was filled;
% Compound inhibition=1−100%×(Signal−Bottom)/(Top−Bottom)
In the case of `CC(C)OC(=O)N[C@H]1CC[C@H](c2ncc(-c3ccc(NC(=O)C4CC4)cc3S(=O)(=O)C3CC3)s2)CC1` [Example 74, isopropyl trans-(4-(5-(4-(cyclopropanecarboxamido)-2-(cyclopropylsulfonyl)phenyl)thiazol-2-yl)cyclohexyl)carbamate], the IC50 was found to be 90 nM.

As to `CC(C)OC(=O)Nc1ccc(-c2cnc([C@H]3CC[C@H](NC(=O)OC(C)C)CC3)s2)c(P2(=O)CCCC2)c1` [Example 27, isopropyl trans-N-[4-[2-[4-(isopropoxycarbonylamino)cyclohexyl]thiazol-5-yl]-3-(1-oxophospholan-1-yl)phenyl]carbamate], the IC50 was 680 nM.

Take `CC(C)OC(=O)N[C@H]1CC[C@H](c2ncc(-c3ccc(Nc4ccc(F)cn4)cc3S(=O)(=O)C3COC3)s2)CC1` [Example 112, isopropyl trans-N-[4-[5-[4-[(5-fluoro-2-pyridyl)amino]-2-(oxetan-3-ylsulfonyl)phenyl]thiazol-2-yl]cyclohexyl]carbamate]: the IC50 was determined as 17 nM.

For `CC(C)OC(=O)NC1CCC(c2ncc(-c3ccc(N4CCCO4)cc3S(=N)(=O)C3CC3)s2)CC1` (stereo not drawn) [Example 64, isopropyl trans-(4-(5-(2-(cyclopropanesulfonimidoyl)-4-(isoxazolidin-2-yl)phenyl)thiazol-2-yl)cyclohexyl)carbamate], the half-inhibitory concentration (IC50) was 5200 nM.

For `Cc1cc(Nc2ccc(-c3cnc([C@H]4CC[C@H](NC(=O)OC(C)C)CC4)s3)c(S(=O)(=O)C(F)(F)F)c2)n[nH]1` [Example 51, isopropyl trans-N-[4-[5-[4-[(5-methyl-1H-pyrazol-3-yl)amino]-2-(trifluoromethylsulfonyl)phenyl]thiazol-2-yl]cyclohexyl]carbamate], the IC50 is 65 nM.

On to `Cc1cc(Nc2ccc(-c3ccc([C@H]4CC[C@H](NC(=O)OC(C)C)CC4)s3)c(S(=O)(=O)C3CC3)c2)n[nH]1` [Example 89, isopropyl trans-(4-(5-(2-(cyclopropylsulfonyl)-4-((5-methyl-1H-pyrazol-3-yl)amino)phenyl)thiophen-2-yl)cyclohexyl)carbamate], for which the IC50 worked out at 7 nM.

Turning to `CC(C)OC(=O)NC12CCC(c3ncc(-c4ccc(Nc5cn(C)nn5)cc4S(=O)(=O)C4CC4)s3)(CC1)CC2` [Example 58], the IC50 was 27 nM.

Turning to `CC(C)OC(=O)N[C@H]1CC[C@H](c2ncc(-c3ccc(Nc4ccc(=O)[nH]c4)cc3S(=O)(=O)C3CC3)s2)CC1` [Example 96, isopropyl trans-(4-(5-(2-(cyclopropylsulfonyl)-4-((6-oxo-1,6-dihydropyridin-3-yl)amino)phenyl)thiazol-2-yl)cyclohexyl)carbamate], the 50% inhibitory concentration (IC50) worked out at 140 nM.

For `CC(C)OC(=O)NC1CCC(c2ncc(-c3ccc(Nc4ccc(F)cn4)cc3S(=O)(=O)C3CC3)s2)CC1` (stereo not drawn) [Example 75, isopropyl trans-N-[4-[5-[2-cyclopropylsulfonyl]-4-[(5-fluoro-2-pyridyl)amino]phenyl]thiazol-2-yl]cyclohexyl]carbamate], the IC50 is 22 nM.

Regarding `CN=S(=O)(c1cc(NC(=O)OC(C)C)ccc1-c1cnc(C2CCC(NC(=O)OC(C)C)CC2)s1)C(C)C` (stereo not drawn) [Example 20, isopropyl trans-N-[4-[2-[4-(isopropoxycarbonylamino)cyclohexyl]thiazol-5-yl]-3-(isopropyl-N-methyl-sulfonimidoyl)phenyl]carbamate], the concentration for half-maximal inhibition (IC50) is 2750 nM.

Consider `CC(C)OC(=O)N[C@H]1CC[C@H](c2ncc(-c3ccc(Nc4ccc(=O)[nH]c4)cc3S(=N)(=O)C3CC3)s2)CC1` (stereo partly drawn) [Example 95, isopropyl trans-(4-(5-(2-(cyclopropanesulfonimidoyl)-4-((6-oxo-1,6-dihydropyridin-3-yl)amino)phenyl)thiazol-2-yl)cyclohexyl)carbamate], for which the IC50 came out at 132 nM.

Regarding `CC(C)OC(=O)Nc1ccc(-c2cnc(C3CCC(NC(=O)OC(C)C)CC3)s2)c(S(C)(=O)=NC2CC2)c1` (stereo not drawn) [Example 43, isopropyl trans-N-[3-(N-cyclopropyl-S-methyl-sulfonimidoyl)-4-[2-[4-(isopropoxycarbonylamino)cyclohexyl]thiazol-5-yl]phenyl]carbamate], the half-maximal inhibitory concentration (IC50) came to 1580 nM.

On to `CN=S(=O)(c1cc(Nc2cc(C)[nH]n2)ccc1-c1cnc([C@H]2CC[C@H](NC(=O)OC(C)C)CC2)s1)C1CC1` (stereo partly drawn) [Example 97, isopropyl trans-(4-(5-(4-((5-methyl-1H-pyrazol-3-yl)amino)-2-(N-methylcyclopropanesulfonimidoyl)phenyl)thiazol-2-yl)cyclohexyl)carbamate], for which the concentration for half-maximal inhibition (IC50) is 290 nM.

On to `CC(C)OC(=O)N[C@H]1CC[C@H](c2ncc(-c3ccc(Nc4ccc[nH]c4=O)cc3S(=O)(=O)C(C)C)s2)CC1` [Example 35, isopropyl trans-N-[4-[5-[2-isopropylsulfonyl-4-[(2-oxo-1H-pyridin-3-yl)amino]phenyl]thiazol-2-yl]cyclohexyl]carbamate], for which the IC50 amounted to 4290 nM.

For `CC(C)OC(=O)N[C@H]1CC[C@H](c2ncc(-c3ccc(Nc4cnn(CCF)c4)cc3S(=N)(=O)C3COC3)s2)CC1` (stereo partly drawn) [Example 106, isopropyl trans-N-[4-[5-[4-[[1-(2-fluoroethyl)pyrazol-4-yl]amino]-2-(oxetan-3-ylsulfonimidoyl)phenyl]thiazol-2-yl]cyclohexyl]carbamate], the concentration for half-maximal inhibition (IC50) was 40 nM.

As for `CC(C)OC(=O)N[C@H]1CC[C@H](c2ncc(-c3ccc(Nc4cc(C5CC5)[nH]n4)cc3S(=N)(=O)C3CC3)s2)CC1` (stereo partly drawn) [Example 63, isopropyl trans-N-[4-[5-[4-[(5-cyclopropyl-1H-pyrazol-3-yl)amino]-2-(cyclopropylsulfonimidoyl)phenyl]thiazol-2-yl]cyclohexyl]carbamate], the IC50 stood at 70 nM.

Take `CCP(=O)(CC)c1cc(NC(=O)OC(C)C)ccc1-c1cnc([C@H]2CC[C@H](NC(=O)OC(C)C)CC2)s1` [Example 23, isopropyl trans-N-[3-diethylphosphoryl-4-[2-[4-(isopropoxycarbonylamino)cyclohexyl]thiazol-5-yl]phenyl]carbamate]: the IC50 stood at 3930 nM.

Consider `Cc1cc(Nc2ccc(-c3cnc([C@H]4CC[C@H](NC(=O)OC(C)C)CC4)s3)c(S(=O)(=O)C(C)C)c2)sn1` [Example 38], for which the IC50 came out at 150 nM.

As to `CC(C)OC(=O)Nc1ccc(-c2ncc(-c3ccc(Nc4cn(C)nn4)cc3S(=O)(=O)C3CC3)s2)cc1` [Example 59], the IC50 was determined as 125 nM.

`Cc1cc(Nc2ccc(-c3cnc([C@H]4CC[C@H](NC(=O)OC(C)C)CC4)[nH]3)c(S(=O)(=O)C3CC3)c2)n[nH]1` [Example 90]: the half-inhibitory concentration (IC50) worked out at 8800 nM.

On to `CC(C)OC(=O)N[C@H]1CC[C@H](c2ncc(-c3ccc(Nc4cc(C(F)(F)F)[nH]n4)cc3S(=O)(=O)C(C)C)s2)CC1` [Example 46], for which the IC50 came to 390 nM.

As to `Cc1cc(Nc2ccc(-c3cnc(-c4ccc(NC(=O)OC(C)C)cc4)s3)c(S(=O)(=O)C3CC3)c2)n[nH]1` [Example 61], the IC50 came out at 104 nM.

On to `CC(C)OC(=O)NC1CCC(c2ncc(-c3ccc(Nc4ncncn4)cc3S(=O)(=O)C3CC3)s2)CC1` (stereo not drawn) [Example 80, isopropyl trans-N-[4-[5-[2-cyclopropylsulfonyl]-4-(1,3,5-triazin-2-ylamino)phenyl]thiazol-2-yl]cyclohexyl]carbamate], for which the IC50 turned out to be 330 nM.
